Laboratory results reported in US12691084B2, “Pharmaceutical composition for preventing or treating bone diseases” (INDUSTRY FOUNDATION OF CHONNAM NATIONAL UNIVERSITY, priority 2019, dated 2026).
Entries after “also recorded” stand apart in the source; their conditions may differ.

How the values were obtained:
[1] = test system: monocytes isolated from mouse bone marrow; assay: MTT assay for cytotoxicity evaluation (cell viability); format: cell-based; details: 3-10 μM; 4 days
Description: 1×10^4 monocytes isolated from mouse bone marrow per well were put into a 96-well plate, and in order to assess cell viability, the cells were cultured for 4 days while being treated with PSTP-3,5-Me at different concentrations (3-10 μM). A cell viability assay reagent (DoGen, EZ-3000) was used for treatment with 1/10 of the volume of the medium, and the cells were cultured at 37° C. for 30 minutes and confirmed at […]. […] In other words, it is understood that no cytotoxicity appeared.

mouse bone marrow cells = assay: F-actin staining, actin-ring formation; format: cell-based; details: 6 uM, 4 to 5 days
Description: In order to determine the activity of differentiated osteoclasts, an ability to differentiate the cells into multinuclear cells was firstly confirmed through F-actin staining. Specifically, 5×10^4 mouse hone marrow cells per well were put into a 24-well plate in which glass coated with L-Lysine was placed (Corning, 354085). Simultaneously, the cells were treated with PSTP-3,5-Me 6 uM and cultured for 4 to 5 days. The differentiated cells were fixed with 4% formaldehyde for 10 minutes and washed with PBS. For the antigen-antibody reaction, a reaction was conducted in 0.1% Triton-PBS for 20 minutes, followed by reacting the same in 1% BSA for 1 hour. Thereafter, the F-actin antibody (Thermo Fisher Scientific, A12379) was reacted for 1 hour and than washed. Cell nuclei were stained through 4′,6-diamidino-2-phenylindole (DAPI, Dilactate, Thermo Fisher Scientific, D3571) staining, and then photographed under a microscope. As a result, it was confirmed by comparing shies of F-actin that PSTP-3,5-Me inhibited differentiation into multinuclear cells.

ovariectomized mouse = assay: Ovariectomized (OVX) mouse osteoporosis model, tibia microcomputer tomography; format: in vivo
Description: In order to confirm in vivo efficacy of the PMSA compound, an ovariectomized animal model (OVX, ovariectomized mouse) with osteoporosis due to estrogen deficiency after ovariectomy in 8-week-old female mouse was prepared. #25 (PMSA-3-Ac, 25 mg/kg) or #25-D12 (PMSA-2-OMe-5-Cl, 20 mg/kg) were injected intraperitoneally once every two days to the ovariectomized mouse model. After 4 weeks, the tibia of the mouse was analyzed for bone density by microcomputer tomography.

[2] = 20 mg/kg intraperitoneally once every two days, 4 weeks, tibia, compared to control (OVX)

Compound | cell viability [1] | differentiation into multinuclear cells (F-actin) (mouse bone marrow cells) | actin-ring formation (mouse bone marrow cells; compared to control) | bone density and bone volume (ovariectomized mouse; 20 mg/kg intraperitoneally once every two days, 4 weeks, compared to control (OVX)) | bone volume (BV) increase (ovariectomized mouse; [2]) [%] | cortical volume (Ct.V) increase (ovariectomized mouse; [2]) [%] | total bone volume (TV) increase (ovariectomized mouse; [2]) [%] | trabecular bone mineral density (Th. BMD) increase (ovariectomized mouse; [2]) [%] | trabecular volume (Th.V) increase (ovariectomized mouse; [2]) [times] | bone loss (ovariectomized mouse; OVX mouse model)
Cc1cc(C)cc(N([C@@H](C)C(=O)Nc2ccccc2Sc2ccccc2)S(C)(=O)=O)c1 [#25-D5, N^2-(3,5-dimethylphenyl)-N^2-(methylsulfonyl)-N-[2-(phenylthio)phenyl]alanineamide] | did not affect cell viability | inhibited | small-sized actin-ring structure | – | – | – | – | – | – | –
COc1ccc(Cl)cc1N(CC(=O)Nc1ccccc1Sc1ccccc1)S(C)(=O)=O [#25-D12, 2-(N-(5-chloro-2-methoxyphenyl)methylsulfonamido)-N-(2-(phenylthio)phenyl)acetamide] | – | – | – | higher | 6.9 | 5.4 | 5.4 | 42.3 | 2.7 | preventing bone loss in the trabecular bone portion; also recorded: effectively reduced bone loss
